{"source": "paper PMC12150326", "about": "(The Journal of Organic Chemistry, 2025)", "type_in_all_cases": "cell-based, human", "key": {"NCI-H460": {"tested_on": "NCI-H460", "procedure,_shortened": "(§1)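 Tested in five doses (top 100 μM, lowest 0.01 μM) within the 60 Cell Screen; COMPARE used TGI responses relative to known tubulin inhibitors.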"}, "786-0": {"tested_on": "786-0", "procedure,_shortened": "as §1"}, "SK-MEL-28": {"tested_on": "SK-MEL-28", "procedure,_shortened": "as §1"}, "MOLT-4": {"tested_on": "MOLT-4", "procedure,_shortened": "as §1"}, "SNB-19": {"tested_on": "SNB-19", "procedure,_shortened": "(§2)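 First, compounds went into the NCI-60 cell panel. Next, they were dosed at 0.01, 0.1, 1, 10 and 100 μM. Finally, TGI levels fed a COMPARE analysis against prior tubulin-inhibitor data.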"}, "NCI/ADR-RES": {"tested_on": "NCI/ADR-RES", "procedure,_shortened": "as §1"}, "HCT-15": {"tested_on": "HCT-15", "procedure,_shortened": "as §1"}, "ACHN": {"tested_on": "ACHN", "procedure,_shortened": "as §2"}, "M14": {"tested_on": "M14", "procedure,_shortened": "as §1"}, "HCT-116": {"tested_on": "HCT-116", "procedure,_shortened": "as §1"}, "OVCAR-5": {"tested_on": "OVCAR-5", "procedure,_shortened": "as §1"}, "NCI-H522": {"tested_on": "NCI-H522", "procedure,_shortened": "as §1"}, "SK-OV-3": {"tested_on": "SK-OV-3", "procedure,_shortened": "as §1"}, "UACC-257": {"tested_on": "UACC-257", "procedure,_shortened": "as §1"}, "CCRF-CEM": {"tested_on": "CCRF-CEM", "procedure,_shortened": "as §2"}, "SF-295": {"tested_on": "SF-295", "procedure,_shortened": "as §1"}, "LOX IMVI": {"tested_on": "LOX IMVI", "procedure,_shortened": "as §2"}, "MALME-3M": {"tested_on": "MALME-3M", "procedure,_shortened": "as §1"}, "NCI-H23": {"tested_on": "NCI-H23", "procedure,_shortened": "as §1"}, "MCF7": {"tested_on": "MCF7", "procedure,_shortened": "as §1"}, "HS 578T": {"tested_on": "HS 578T", "procedure,_shortened": "as §1"}, "HOP-62": {"tested_on": "HOP-62", "procedure,_shortened": "as §2"}, "SN12C": {"tested_on": "SN12C", "procedure,_shortened": "as §1"}, "HOP-92": {"tested_on": "HOP-92", "procedure,_shortened": "as §1"}, "SK-MEL-2": {"tested_on": "SK-MEL-2", "procedure,_shortened": "as §1"}, "TK-10": {"tested_on": "TK-10", "procedure,_shortened": "as §2"}, "U251": {"tested_on": "U251", "procedure,_shortened": "as §1"}, "COLO 205": {"tested_on": "COLO 205", "procedure,_shortened": "as §1"}}, "data": [{"smiles": "COc1cc(C)c(-c2ccc(OC)c(=O)cc2C)c(OC)c1OC", "note": "(single isomer, unassigned) [(aS)-6]", "values": [{"measurement": "Log10GI50", "setting": "NCI-H460", "value": "> -4.00", "unit": "Molar"}, {"measurement": "Log10LC50", "setting": "NCI-H460", "value": "> -4.00", "unit": "Molar"}, {"measurement": "Log10TGI", "setting": "NCI-H460", "value": "> -4.00", "unit": "Molar"}, {"measurement": "Log10GI50", "setting": "786-0", "value": "> -4.00", "unit": "Molar"}, {"measurement": "Log10LC50", "setting": "786-0", "value": "> -4.00", "unit": "Molar"}, {"measurement": "Log10TGI", "setting": "786-0", "value": "> -4.00", "unit": "Molar"}, {"measurement": "Log10GI50", "setting": "SK-MEL-28", "value": "> -4.00", "unit": "Molar"}, {"measurement": "Log10LC50", "setting": "SK-MEL-28", "value": "> -4.00", "unit": "Molar"}, {"measurement": "Log10TGI", "setting": "SK-MEL-28", "value": "> -4.00", "unit": "Molar"}, {"measurement": "Log10GI50", "setting": "MOLT-4", "value": "> -4.00", "unit": "Molar"}, {"measurement": "Log10LC50", "setting": "MOLT-4", "value": "> -4.00", "unit": "Molar"}, {"measurement": "Log10TGI", "setting": "MOLT-4", "value": "> -4.00", "unit": "Molar"}, {"measurement": "Log10GI50", "setting": "SNB-19", "value": "> -4.00", "unit": "Molar"}, {"measurement": "Log10LC50", "setting": "SNB-19", "value": "> -4.00", "unit": "Molar"}, {"measurement": "Log10TGI", "setting": "SNB-19", "value": "> -4.00", "unit": "Molar"}, {"measurement": "Log10GI50", "setting": "NCI/ADR-RES", "value": "> -4.00", "unit": "Molar"}, {"measurement": "Log10LC50", "setting": "NCI/ADR-RES", "value": "> -4.00", "unit": "Molar"}, {"measurement": "Log10TGI", "setting": "NCI/ADR-RES", "value": "> -4.00", "unit": "Molar"}, {"measurement": "Log10GI50", "setting": "HCT-15", "value": "> -4.00", "unit": "Molar"}, {"measurement": "Log10LC50", "setting": "HCT-15", "value": "> -4.00", "unit": "Molar"}, {"measurement": "Log10TGI", "setting": "HCT-15", "value": "> -4.00", "unit": "Molar"}, {"measurement": "Log10GI50", "setting": "ACHN", "value": "> -4.00", "unit": "Molar"}, {"measurement": "Log10LC50", "setting": "ACHN", "value": "> -4.00", "unit": "Molar"}, {"measurement": "Log10TGI", "setting": "ACHN", "value": "> -4.00", "unit": "Molar"}, {"measurement": "Log10GI50", "setting": "M14", "value": "> -4.00", "unit": "Molar"}, {"measurement": "Log10LC50", "setting": "M14", "value": "> -4.00", "unit": "Molar"}, {"measurement": "Log10TGI", "setting": "M14", "value": "> -4.00", "unit": "Molar"}, {"measurement": "Log10GI50", "setting": "HCT-116", "value": "> -4.00", "unit": "Molar"}, {"measurement": "Log10LC50", "setting": "HCT-116", "value": "> -4.00", "unit": "Molar"}, {"measurement": "Log10TGI", "setting": "HCT-116", "value": "> -4.00", "unit": "Molar"}, {"measurement": "Log10GI50", "setting": "OVCAR-5", "value": "> -4.00", "unit": "Molar"}, {"measurement": "Log10LC50", "setting": "OVCAR-5", "value": "> -4.00", "unit": "Molar"}, {"measurement": "Log10TGI", "setting": "OVCAR-5", "value": "> -4.00", "unit": "Molar"}, {"measurement": "Log10GI50", "setting": "NCI-H522", "value": "> -4.00", "unit": "Molar"}, {"measurement": "Log10LC50", "setting": "NCI-H522", "value": "> -4.00", "unit": "Molar"}, {"measurement": "Log10TGI", "setting": "NCI-H522", "value": "> -4.00", "unit": "Molar"}, {"measurement": "Log10GI50", "setting": "SK-OV-3", "value": "> -4.00", "unit": "Molar"}, {"measurement": "Log10LC50", "setting": "SK-OV-3", "value": "> -4.00", "unit": "Molar"}, {"measurement": "Log10TGI", "setting": "SK-OV-3", "value": "> -4.00", "unit": "Molar"}, {"measurement": "Log10GI50", "setting": "UACC-257", "value": "> -4.00", "unit": "Molar"}, {"measurement": "Log10LC50", "setting": "UACC-257", "value": "> -4.00", "unit": "Molar"}, {"measurement": "Log10TGI", "setting": "UACC-257", "value": "> -4.00", "unit": "Molar"}, {"measurement": "Log10GI50", "setting": "CCRF-CEM", "value": "> -4.00", "unit": "Molar"}, {"measurement": "Log10LC50", "setting": "CCRF-CEM", "value": "> -4.00", "unit": "Molar"}, {"measurement": "Log10TGI", "setting": "CCRF-CEM", "value": "> -4.00", "unit": "Molar"}, {"measurement": "Log10GI50", "setting": "SF-295", "value": "> -4.00", "unit": "Molar"}, {"measurement": "Log10LC50", "setting": "SF-295", "value": "> -4.00", "unit": "Molar"}, {"measurement": "Log10TGI", "setting": "SF-295", "value": "> -4.00", "unit": "Molar"}, {"measurement": "Log10GI50", "setting": "LOX IMVI", "value": "> -4.00", "unit": "Molar"}, {"measurement": "Log10LC50", "setting": "LOX IMVI", "value": "> -4.00", "unit": "Molar"}, {"measurement": "Log10TGI", "setting": "LOX IMVI", "value": "> -4.00", "unit": "Molar"}, {"measurement": "Log10GI50", "setting": "MALME-3M", "value": "> -4.00", "unit": "Molar"}, {"measurement": "Log10LC50", "setting": "MALME-3M", "value": "> -4.00", "unit": "Molar"}, {"measurement": "Log10TGI", "setting": "MALME-3M", "value": "> -4.00", "unit": "Molar"}, {"measurement": "Log10GI50", "setting": "NCI-H23", "value": "> -4.00", "unit": "Molar"}, {"measurement": "Log10LC50", "setting": "NCI-H23", "value": "> -4.00", "unit": "Molar"}, {"measurement": "Log10TGI", "setting": "NCI-H23", "value": "> -4.00", "unit": "Molar"}, {"measurement": "Log10GI50", "setting": "MCF7", "value": "> -4.00", "unit": "Molar"}, {"measurement": "Log10LC50", "setting": "MCF7", "value": "> -4.00", "unit": "Molar"}, {"measurement": "Log10TGI", "setting": "MCF7", "value": "> -4.00", "unit": "Molar"}, {"measurement": "Log10GI50", "setting": "HS 578T", "value": "> -4.00", "unit": "Molar"}, {"measurement": "Log10LC50", "setting": "HS 578T", "value": "> -4.00", "unit": "Molar"}, {"measurement": "Log10TGI", "setting": "HS 578T", "value": "> -4.00", "unit": "Molar"}, {"measurement": "Log10GI50", "setting": "HOP-62", "value": "> -4.00", "unit": "Molar"}, {"measurement": "Log10LC50", "setting": "HOP-62", "value": "> -4.00", "unit": "Molar"}, {"measurement": "Log10TGI", "setting": "HOP-62", "value": "> -4.00", "unit": "Molar"}, {"measurement": "Log10GI50", "setting": "SN12C", "value": "> -4.00", "unit": "Molar"}, {"measurement": "Log10LC50", "setting": "SN12C", "value": "> -4.00", "unit": "Molar"}, {"measurement": "Log10TGI", "setting": "SN12C", "value": "> -4.00", "unit": "Molar"}, {"measurement": "Log10GI50", "setting": "HOP-92", "value": -4.65, "unit": "Molar"}, {"measurement": "Log10LC50", "setting": "HOP-92", "value": "> -4.00", "unit": "Molar"}, {"measurement": "Log10TGI", "setting": "HOP-92", "value": "> -4.00", "unit": "Molar"}, {"measurement": "Log10GI50", "setting": "SK-MEL-2", "value": "> -4.00", "unit": "Molar"}, {"measurement": "Log10LC50", "setting": "SK-MEL-2", "value": "> -4.00", "unit": "Molar"}, {"measurement": "Log10TGI", "setting": "SK-MEL-2", "value": "> -4.00", "unit": "Molar"}, {"measurement": "Log10GI50", "setting": "TK-10", "value": "> -4.00", "unit": "Molar"}, {"measurement": "Log10LC50", "setting": "TK-10", "value": "> -4.00", "unit": "Molar"}, {"measurement": "Log10TGI", "setting": "TK-10", "value": "> -4.00", "unit": "Molar"}, {"measurement": "Log10GI50", "setting": "U251", "value": "> -4.00", "unit": "Molar"}, {"measurement": "Log10LC50", "setting": "U251", "value": "> -4.00", "unit": "Molar"}, {"measurement": "Log10TGI", "setting": "U251", "value": "> -4.00", "unit": "Molar"}, {"measurement": "Log10GI50", "setting": "COLO 205", "value": "> -4.00", "unit": "Molar"}, {"measurement": "Log10LC50", "setting": "COLO 205", "value": "> -4.00", "unit": "Molar"}, {"measurement": "Log10TGI", "setting": "COLO 205", "value": "> -4.00", "unit": "Molar"}]}]}
